In patent US5534517A, “(Aryl(alkyl)carbonyl)-heterocyclic compounds and their use in the treatment of anxiety and depression” (Adir Et Compagnie, priority 1993, dated 1996):
Like-named read-outs stand apart in the source and are kept apart here.

Legend:
[1] = target: T1, 5-HT2 serotoninergic receptors (Rattus norvegicus, UniProt P14842); experiment: in-vitro affinity for 5-HT2 serotoninergic receptors, by measuring the displacement of aminoiodoketanserin, on rat frontal cortex preparations; details: read-out: IC50 (concentration inhibiting binding of the labelled ligand by 50%) (converted)
T1 construct: on rat frontal cortex preparations; from tissue; host or cells: rat frontal cortex
T1 sequence (P14842 whole entry): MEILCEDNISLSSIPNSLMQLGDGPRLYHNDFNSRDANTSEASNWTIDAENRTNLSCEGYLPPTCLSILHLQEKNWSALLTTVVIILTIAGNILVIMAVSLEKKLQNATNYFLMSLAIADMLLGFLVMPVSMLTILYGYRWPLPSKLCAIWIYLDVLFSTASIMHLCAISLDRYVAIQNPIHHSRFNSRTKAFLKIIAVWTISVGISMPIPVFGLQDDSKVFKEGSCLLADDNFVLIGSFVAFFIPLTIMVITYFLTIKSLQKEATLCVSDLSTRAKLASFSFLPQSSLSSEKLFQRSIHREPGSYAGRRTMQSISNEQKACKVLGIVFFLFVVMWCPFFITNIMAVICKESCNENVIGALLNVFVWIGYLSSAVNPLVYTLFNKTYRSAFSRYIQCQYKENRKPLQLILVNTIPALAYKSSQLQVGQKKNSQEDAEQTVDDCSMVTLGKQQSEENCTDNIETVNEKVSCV
Experimental: The in-vitro affinity of the compounds of the invention was determined
for 5-HT2 serotoninergic receptors, by measuring the displacement of aminoiodoketanserin, on rat frontal cortex preparations, […]

[2] = design: species or system Rats or mice; details: in vivo

SMILES | IC50 [1] | further results
O=C(c1ccc(F)cc1)C1CCN(CCn2c(=O)sc3ccccc32)CC1 [Example 1, 3-{2-[4-(4-FLUOROBENZOYL)PIPERIDINO]ETHYL}BENZOTHIAZOLIN-2-ONE] | 1 nM | 
COc1ccccc1N1CCN(CCCCc2ccc3c(c2)sc(=O)n3CCN2CCC(C(=O)c3ccc(F)cc3)CC2)CC1 [Example 3, 3-{2-[4-(4-FLUOROBENZOYL)PIPERIDINO]ETHYL}-6-(4-[4-(2-METHOXY-PHENYL)PIPERAZINYL]BUTYL}BENZOTHIAZOLIN-2-ONE] | 1 nM | 
O=C(c1ccc(F)cc1)C1CCN(CCn2c(=O)sc3cc(CCCCN4CCOCC4)ccc32)CC1 [Example 4, 3-{2-[4-(4-FLUOROBENZOYL)PIPERIDINO]ETHYL}-6-(4-MORPHOLINOBUTYL)BENZOTHIAZOLIN-2-ONE] | 0.5 nM | 
Cn1c(=O)sc2cc(CCN3CCC(C(=O)c4ccc(F)cc4)CC3)ccc21 [Example 48, 3-METHYL-6-{2-[4-(4-FLUOROBENZOYL)PIPERIDINO]ETHYL}BENZOTHIAZOLIN-2-ONE] |  | inhibition of reaction time which the animal takes to lick its paws [2]: 175%
CN1CC[C@]23c4c5ccc(O)c4O[C@H]2[C@@H](O)C=C[C@H]3[C@H]1C5 [morphine, reference compound] |  | inhibition of reaction time which the animal takes to lick its paws ([2]; ip): 129%
